Columns and labels:
Format in all cases: in vivo
Kochia (Kochia scoparia) [1] = assay: Test A preemergence; settings: Bassia scoparia, pre-emergence, 240 h, preemergence, read-out: Plant response rating, Kochia; for pest or weed control at 125 g/ha: 125 g ai/ha, visual rating after approx. 10 d, 0 to 100 scale where 0 is no effect and 100 is complete control; for pest or weed control at 500 g/ha: 500 g ai/ha, 0 to 100 scale, 0 = no effect, 100 = complete control
In short: (§1)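 Seeds sprayed preemergence with a directed soil spray, or plants at 2 to 10 cm height and one- to two-leaf stage sprayed postemergence, with test chemicals in a non-phytotoxic solvent mixture containing surfactant, in loam soil–sand blend. Injury rated visually against untreated controls after about 10 d in greenhouse, 0 (no effect) to 100 (complete control).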

[2] = tested on: barnyardgrass (Echinochloa crus-galli); assay: Test A preemergence; settings: Echinochloa crus-galli, pre-emergence, 240 h, preemergence, read-out: Plant response rating, Barnyardgrass; for pest or weed control at 125 g/ha: 125 g ai/ha, visual rating after approx. 10 d, 0 to 100 scale where 0 is no effect and 100 is complete control; for pest or weed control at 500 g/ha: 500 g ai/ha, 0 to 100 scale, 0 = no effect, 100 = complete control
In short: as §1

[3] = tested on: giant foxtail (Setaria faberii); assay: Test A preemergence; settings: Setaria faberi, pre-emergence, 240 h, preemergence, read-out: Plant response rating, Foxtail, Giant; for pest or weed control at 125 g/ha: 125 g ai/ha, visual rating after approx. 10 d, 0 to 100 scale where 0 is no effect and 100 is complete control; for pest or weed control at 500 g/ha: 500 g ai/ha, 0 to 100 scale, 0 = no effect, 100 = complete control
In short: as §1

[4] = tested on: pigweed (Amaranthus retroflexus); assay: Test A preemergence; settings: Amaranthus retroflexus, pre-emergence, 240 h, preemergence, read-out: Plant response rating, Pigweed; for pest or weed control at 125 g/ha: 125 g ai/ha, visual rating after approx. 10 d, 0 to 100 scale where 0 is no effect and 100 is complete control; for pest or weed control at 500 g/ha: 500 g ai/ha, 0 to 100 scale, 0 = no effect, 100 = complete control
[5] = tested on: ragweed (common ragweed, Ambrosia elatior); assay: Test A preemergence; settings: Ambrosia artemisiifolia, pre-emergence, 240 h, preemergence, read-out: Plant response rating, Ragweed; for pest or weed control at 125 g/ha: 125 g ai/ha, visual rating after approx. 10 d, 0 to 100 scale where 0 is no effect and 100 is complete control; for pest or weed control at 500 g/ha: 500 g ai/ha, 0 to 100 scale, 0 = no effect, 100 = complete control
In short: as §1

[6] = tested on: ryegrass, Italian (Italian ryegrass, Lolium multiflorum); assay: Test A preemergence; settings: Lolium multiflorum, pre-emergence, 240 h, preemergence, read-out: Plant response rating, Ryegrass, Italian; for pest or weed control at 125 g/ha: 125 g ai/ha, visual rating after approx. 10 d, 0 to 100 scale where 0 is no effect and 100 is complete control
In short: as §1

[7] = tested on: Galium (catchweed bedstraw, Galium aparine); assay: Test A postemergence; settings: Galium, post-emergence, 240 h, 125 g ai/ha, postemergence; visual injury after approximately 10 d; 0 to 100 scale (0 no effect, 100 complete control); read-out: Plant response rating, Galium
In short: as §1

Kochia (Kochia scoparia) [8] = assay: Test A postemergence; settings: Bassia scoparia, post-emergence, 240 h, 125 g ai/ha, postemergence; visual injury after approximately 10 d; 0 to 100 scale (0 no effect, 100 complete control); read-out: Plant response rating, Kochia
In short: as §1

[9] = tested on: barnyardgrass (Echinochloa crus-galli); assay: Test A postemergence; settings: Echinochloa crus-galli, post-emergence, 240 h, 125 g ai/ha, postemergence; visual injury after approximately 10 d; 0 to 100 scale (0 no effect, 100 complete control); read-out: Plant response rating, Barnyardgrass
In short: as §1

[10] = tested on: blackgrass (Alopecurus myosuroides); assay: Test A postemergence; settings: Alopecurus myosuroides, post-emergence, 240 h, 125 g ai/ha, postemergence; visual injury after approximately 10 d; 0 to 100 scale (0 no effect, 100 complete control); read-out: Plant response rating, Blackgrass
In short: as §1

corn (Zea mays) = assay: Test A postemergence; settings: Zea mays, post-emergence, 240 h, 125 g ai/ha, postemergence; visual injury after approximately 10 d; 0 to 100 scale (0 no effect, 100 complete control)
In short: as §1

[11] = tested on: giant foxtail (Setaria faberii); assay: Test A postemergence; settings: Setaria faberi, post-emergence, 240 h, 125 g ai/ha, postemergence; visual injury after approximately 10 d; 0 to 100 scale (0 no effect, 100 complete control); read-out: Plant response rating, Foxtail, Giant
In short: as §1

[12] = tested on: pigweed (Amaranthus retroflexus); assay: Test A postemergence; settings: Amaranthus retroflexus, post-emergence, 240 h, 125 g ai/ha, postemergence; visual injury after approximately 10 d; 0 to 100 scale (0 no effect, 100 complete control); read-out: Plant response rating, Pigweed
In short: as §1

[13] = tested on: ragweed (common ragweed, Ambrosia elatior); assay: Test A postemergence; settings: Ambrosia artemisiifolia, post-emergence, 240 h, 125 g ai/ha, postemergence; visual injury after approximately 10 d; 0 to 100 scale (0 no effect, 100 complete control); read-out: Plant response rating, Ragweed
In short: as §1

[14] = tested on: ryegrass, Italian (Italian ryegrass, Lolium multiflorum); assay: Test A postemergence; settings: Lolium multiflorum, post-emergence, 240 h, 125 g ai/ha, postemergence; visual injury after approximately 10 d; 0 to 100 scale (0 no effect, 100 complete control); read-out: Plant response rating, Ryegrass, Italian
In short: as §1

[15] = tested on: wheat (Triticum aestivum); assay: Test A postemergence; settings: Triticum aestivum, post-emergence, 240 h, 125 g ai/ha, postemergence; visual injury after approximately 10 d; 0 to 100 scale (0 no effect, 100 complete control); read-out: Plant response rating, Wheat
In short: as §1

`O=C1NC[C@H](c2cccc3c2OC(F)(F)O3)[C@H]1C(=O)Nc1ccccc1F` [Compound 754] was tested, and the pest or weed control at 125 g/ha (Kochia (Kochia scoparia) [1]) was 0%, the pest or weed control at 500 g/ha (Kochia (Kochia scoparia) [1]) was 0% and the pest or weed control at 125 g/ha [2] was 80%. It also gave a pest or weed control at 500 g/ha [2] of 100%, a pest or weed control at 125 g/ha [3] of 70% and a pest or weed control at 500 g/ha [3] of 90%. For the same molecule, the pest or weed control at 125 g/ha [4] was 0%, the pest or weed control at 500 g/ha [4] was 0% and the pest or weed control at 125 g/ha [5] was 0%. It also gave a pest or weed control at 500 g/ha [5] of 0%, a pest or weed control at 125 g/ha [6] of 0% and a pest or weed control at 500 g/ha ([6]; 500 g ai/ha, 0 to 100 scale, 0 = no effect, 100 = complete control) of 0%. The pest or weed control at 125 g/ha [7] was 0%, the pest or weed control at 125 g/ha (Kochia (Kochia scoparia) [8]) was 0% and the pest or weed control at 125 g/ha [9] was 60%. It also gave a pest or weed control at 125 g/ha [10] of 0%, a Corn plant response rating (crop injury, 0 = no effect, 100 = complete kill) at 125 g/ha (corn (Zea mays)) of 0% and a pest or weed control at 125 g/ha [11] of 60%. For the same molecule, the pest or weed control at 125 g/ha [12] was 0%, the pest or weed control at 125 g/ha [13] was 0% and the pest or weed control at 125 g/ha [14] was 0%. It also gave a plant injury at 125 g/ha [15] of 0%.

With `CCc1ccc([C@H]2CNC(=S)[C@@H]2C(=O)Nc2ccccc2SC)cc1` [Compound 763] the pest or weed control at 125 g/ha (Kochia (Kochia scoparia) [1]) was 30%, the pest or weed control at 500 g/ha (Kochia (Kochia scoparia) [1]) was 30% and the pest or weed control at 125 g/ha [2] was 80%. It also gave a pest or weed control at 500 g/ha [2] of 80%, a pest or weed control at 125 g/ha [3] of 0% and a pest or weed control at 500 g/ha [3] of 50%. It also gave a pest or weed control at 125 g/ha [4] of 0%, a pest or weed control at 500 g/ha [4] of 30% and a pest or weed control at 125 g/ha [5] of 0%. The pest or weed control at 500 g/ha [5] was 0%, the pest or weed control at 125 g/ha [6] was 0% and the pest or weed control at 125 g/ha [7] was 0%. The pest or weed control at 125 g/ha (Kochia (Kochia scoparia) [8]) was 0%, the pest or weed control at 125 g/ha [9] was 0% and the pest or weed control at 125 g/ha [10] was 0%. It also gave a Corn plant response rating (crop injury, 0 = no effect, 100 = complete kill) at 125 g/ha (corn (Zea mays)) of 0%, a pest or weed control at 125 g/ha [11] of 0% and a pest or weed control at 125 g/ha [12] of 0%. The pest or weed control at 125 g/ha [13] was 0%, the pest or weed control at 125 g/ha [14] was 0% and the plant injury at 125 g/ha [15] was 0%.

Reference: patent US12077503B2, “Substituted cyclic amides and their use as herbicides” (FMC CORPORATION, priority 2015, dated 2024)
